For one data set, the system named is A549. Put plainly: Cell proliferation assay (MTT/CCK-8), A549. To be noted: Homo sapiens, A549, 48 h, read-out: IC50 A549.
Data set [1] in a line: Myelosuppressive toxicity evaluation, peripheral blood counts of s180 mice. The note with it: day 10, 90 μmol/kg/day, vs vehicle. The data set is classed as in vivo, ICR mice.
Protocol: To determine the effects on myelosuppression, WBC, RBC, PLT count, ALC, and ANC were performed in peripheral blood samples of s180 mice (Figure 7F) on day 10.
Another data set deals with s180. Put plainly: Cell proliferation assay (MTT/CCK-8), s180. To be noted: Mus musculus, S-180, 48 h, read-out: IC50 s180.
The test system of the next data set is RPMI-8226. Put plainly: Cell proliferation assay (MTT/CCK-8), RPMI-8226. The note with it: Homo sapiens, RPMI-8226, 48 h, read-out: IC50 RPMI-8226.
In data set [2] the test system is SQSTM1/p62, ATF4, and NF-κB in HCT116 cells. Put plainly: Western blot of p97 downstream biomarkers. To be noted: DBeQ 10 μM, CB-5083 0.5 μM, 8 h treatment. (A western blot detects proteins with antibodies after separation by electrophoresis.)
Protocol: HCT116 cells were plated into 6-well plates (2 × 10^6 cells/well) when they were 70%–80% confluent. DMSO (0.5% v/v) or compounds were added, and cells were harvested after 8 h of treatment and washed three times with phosphate-buffered saline (PBS, pH 7.4). […] The secondary antibodies used were goat anti-mouse IgG (HRP, Abcam/ab6789).
Data set [3] concerns p97. To be noted: cited from earlier work.
A further data set deals with K562. Put plainly: Cell proliferation assay (MTT/CCK-8), K562. The note with it: Homo sapiens, K562, 48 h, read-out: IC50 K562.
A further data set has as its system HepG2. Put plainly: Cell proliferation assay (MTT/CCK-8), HepG2. To be noted: Homo sapiens, HepG2, 48 h, read-out: IC50 HepG2.
Data set [4] concerns HCT116 cells. Put plainly: Apoptosis assay, annexin V/PI staining and flow cytometry. The note with it: 10 μM, 12 h; control cells 3.5%. (In flow cytometry, cells or beads pass a laser one at a time.)
Protocol: Apoptosis was measured by flow cytometry after staining with annexin V and propidium iodide (PI) in HCT116 (Figure 5).
The assay was performed as recommended by the manufacturer. Briefly, the HCT116 cells were seeded in 6-well plates (2 × 10^6 cells/well) and allowed to adhere for 4 hours. Then, each well was treated with DMSO (0.5% v/v) or compounds for 12 h. For the apoptosis experiment, at the end of treatment, the cells were washed twice with cold PBS and then harvested for staining with annexin V in binding buffer for 15 min in the dark at room temperature. The cells were washed in binding buffer and then incubated with propidium iodide. […] The samples were measured using flow cytometry (Beckman, cytoFLEX) within 4 h and analyzed using CytExpert (V 2.4.0.28).
The test system of a further data set is NCM460. Put plainly: Cell proliferation assay (MTT/CCK-8), normal colon mucosal epithelial cell line NCM460. The note with it: Homo sapiens, NCM460, 48 h, read-out: IC50 NCM460.
The subject of a further data set is HCT116. Put plainly: Cell proliferation assay (MTT/CCK-8), HCT116. The note with it: Homo sapiens, HCT-116, 48 h, read-out: IC50 HCT116.
For another data set, the target named is His6-p97 (Homo sapiens, UniProt P55072). Put plainly: Microscale thermophoresis (MST) binding assay with fluorescent-labeled His6-p97. On the technique in general: MST reads how a fluorescent partner responds to local heating, with and without ligand.
The test system of data set [5] is HCT116 cells. Put plainly: Cell cycle assay, PI staining and flow cytometry. Format: cell-based, human. To be noted: for effect on the cell cycle: HCT116, 12 h.
The target in the next data set is p97 ATPase (Homo sapiens, UniProt P55072). Put plainly: p97 ATPase inhibition, ADP-Glo kinase assay. To be noted: for IC50 of inactivation activities against p97: ADP-Glo, 20 nM p97, 20 μM ATP.
Data set [6] deals with p97. Put plainly: In vivo p97 expression measurement by ELISA. The note with it: day 10, oral 90 μmol/kg/day.
Where [7] appears, read: literature values of DBeQ derivatives, Figure 2, read-out: IC50 (p97 inhibitors developed by several research groups).

The IC50 is the concentration needed to halve the response being measured. A word on the Kd: it is a measure of binding affinity in units of concentration. High values mean lower affinity, low ones higher affinity.

Like-named read-outs stand apart in the source and are kept apart here.

Sequence of p97 ATPase (P55072 whole entry): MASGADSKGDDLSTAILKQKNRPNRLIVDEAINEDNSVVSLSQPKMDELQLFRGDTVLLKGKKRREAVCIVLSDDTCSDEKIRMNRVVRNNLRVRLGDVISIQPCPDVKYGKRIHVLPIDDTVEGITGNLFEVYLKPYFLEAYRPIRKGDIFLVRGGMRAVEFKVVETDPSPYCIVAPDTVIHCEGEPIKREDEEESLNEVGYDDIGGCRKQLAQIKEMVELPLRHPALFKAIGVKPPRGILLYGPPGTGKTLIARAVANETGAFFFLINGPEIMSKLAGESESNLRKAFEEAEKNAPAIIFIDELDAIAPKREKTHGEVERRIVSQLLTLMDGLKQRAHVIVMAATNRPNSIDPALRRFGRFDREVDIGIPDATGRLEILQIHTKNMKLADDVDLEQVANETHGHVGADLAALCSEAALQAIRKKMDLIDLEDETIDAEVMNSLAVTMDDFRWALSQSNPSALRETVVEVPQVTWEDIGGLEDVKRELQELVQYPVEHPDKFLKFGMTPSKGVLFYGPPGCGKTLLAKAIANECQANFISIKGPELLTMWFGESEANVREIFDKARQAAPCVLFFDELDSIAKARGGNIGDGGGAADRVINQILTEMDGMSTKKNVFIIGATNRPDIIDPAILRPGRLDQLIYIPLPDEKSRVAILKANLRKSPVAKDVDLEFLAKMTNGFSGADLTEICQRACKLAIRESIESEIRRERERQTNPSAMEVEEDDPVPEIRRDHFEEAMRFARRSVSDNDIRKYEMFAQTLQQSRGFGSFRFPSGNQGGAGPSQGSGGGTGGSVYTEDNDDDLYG
Sequence of His6-p97 (P55072 whole entry): as above
Protocol for A549: (§1) Cells were treated with the tested compounds in a variety of concentrations and incubated at 37°C for 48 h before measurement. IC50 values were calculated using the percentage of growth of treated cells versus the blank control (Table 2).
(§2) The medium was supplemented with 10% fetal bovine serum (FBS) (Hyclone, SH30084.03). Cells were cultured in an incubator containing 5% CO2 at 37°C.
(§3) Cells were seeded at 3,000–4,000 cells per well in a 96-well plate to test the antiproliferative activity of target compounds. Cells were treated with the compounds or positive controls 6 h after seeding (twofold dilution, eight concentrations). […] The results were analyzed using GraphPad Prism 7.0.
Protocol for HepG2: as §1, §2, §3
Protocol for His6-p97: Fluorescent labeling of His6-p97 was carried out using the RED-tris-NTA labeling kit (Catalog No. MO-L011, NanoTemper Technologies) on a NanoTemper Monolith NT.115 following the manufacturer’s protocol. In brief, His6-p97 protein was diluted into 200 nM with PBST (0.05% Tween 20 in PBS), and red-NHS dye was diluted into 100 nM with PBST. Then, His6-p97 and RED-tris-NTA dye were mixed in a 1:1 volumetric ratio and incubated at room temperature for 30 min. […] Then 10 μL of compounds were mixed at different concentrations with 10 μL of dye-labeled His6-p97. Subsequently, well-mixed solutions containing compounds and dye-labeled His6-p97 were loaded into capillaries (Catalog No. MO-K025, NanoTemper Technologies), which were placed in slots 1–16 on the capillary rack. Then, MST experiments were carried out at an ambient temperature, and the instrument parameters were set to 20% LED power and medium MST power. The equilibrium dissociation constants were derived from the M.O. Affinity Analysis software using the K d model based on four independently titrated experiments per condition.
Protocol for K562: as §1, §2, §3
Protocol for NCM460: Cells were treated with the tested compounds in a variety of concentrations and incubated at 37°C for 48 h before measurement. […] Furthermore, we evaluated all compounds’ potency toward the normal human cell line NCM460.
as §2, §3
Protocol for RPMI-8226: as §1, §2, §3
Protocol for p97 ATPase: As the major indicator of p97 inhibitors, the inactivation of p97 ATPase by the tested compounds was determined using an ADP-Glo kinase assay, in which the formation of ADP represented the activity of ATPase.
His‐tagged human VCP (hVCP) cDNA was amplified by PCR and cloned into PCR‐linearized pET15 b (Merck Millipore, Burlington, MA, United States) using a CloneEZ Kit (Genscript). The pET15 b‐hVCP plasmid was transformed into Escherichia coli BL21 (Rosetta; Novagen, Madison, WI, United States), and the transformed bacteria were pre-cultured in LB medium containing kanamycin and chloramphenicol overnight at 37°C. Protein expression was induced with 1 mmol/L isopropyl‐β‐D‐thiogalactopyranoside.
Protein concentrations were first normalized using a Pierce BCA protein assay kit (Thermo Fisher), and a standard series was prepared with the BSA provided (2 mg/ml–25 μg/μL). Twenty-five microliters of each standard and unknown sample was added to a 96-well plate in triplicate, and 200 μL of working reagent was added to each well and prepared according to the manufacturer’s guidelines.
The protein solution was diluted to 20 nM of p97 with 20 μM ATP in triplicate in 5 μL of 1× Kinase Reaction Buffer A (40 mM Tris, pH 7.5, 20 mM MgCl2, 0.1 mg/mL BSA) and incubated at 37°C for 30 min. After incubation, the solutions were equilibrated to RT for 5 min, and 5 μL of ADP-Glo reagent was added to stop the reaction and consume the remaining ATP. The solution was incubated for 40 min at RT. Ten microliters of kinase detection reagent was added and incubated for 30 min. The sample’s luminescence was recorded using a multimode microplate reader (SMP7, MD). Each sample was averaged across the three measurements and plotted as mean ± standard deviation.

Take `Cc1cc2c(C(N)=O)cccc2n1-c1nc2c(c(NCc3ccccc3)n1)COCC2` [CB-5083, reference compound]: the IC50 is 0.77 ± 0.38 µM in the data set on A549; 0.24 ± 0.29 µM in the data set on s180; 0.15 ± 0.02 µM in the data set with RPMI-8226; 0.011 µM with p97 [3] (setting [7]); 0.7 ± 0.42 µM in the data set with K562; 0.16 ± 0.03 µM with HepG2. Also, the values for the IC50 in the data set with NCM460 and in the data set with HCT116 were 0.078 ± 0.015 µM and 0.47 ± 0.16 µM, respectively. Besides, in data set [1], the ALC entry is “significantly lower”. The ANC result in data set [1] was “significantly lower”. Also, the WBC entry in data set [1] is listed as “significantly lower”. For the same compound, the body weight change result (oral 90 μmol/kg/day, 10 days) is on record as “obvious weight loss effects”. Under “oral 90 μmol/kg/day, 10 days”, the “death of mice during the in vivo experiments” value is “death occurred on day 8”. In addition, the “autophagosome formation in the cytoplasm” value in data set [2] was “induced accumulation”. Also, in data set [2], the “levels of the ER stress biomarker (ATF4)” value is “increased levels”. For the same compound, in the data set on HCT116 cells [4], the “proportion of apoptotic cells” value is on record as 20.42%.
For `O=C(NNc1ncnc2ccccc12)c1cnccn1` [Compound 4, Nʹ-(Quinazolin-4-yl)pyrazine-2-carbohydrazide], the IC50 with A549 was > 100 µM; in the data set with s180, 1.04 ± 0.37 µM; with RPMI-8226 it was 5.24 ± 0.45 µM; against p97 ATPase, 0.108 µM; in the data set on K562, 66.7 ± 9.97 µM; in the data set on HepG2 it was > 100 µM. The values for the IC50 in the data set with NCM460 and with HCT116 were 49.8 ± 3.25 µM and 3.48 ± 0.21 µM, respectively. Also, the Kd on His6-p97 stood at 0.64 ± 0.26 µM. For the same compound, the “effect on the cell cycle” value in the data set on HCT116 cells [5] was “cell proportion in the S phase in the compound 4-treated group was notably higher than that in the vehicle group”. Besides, the “proportion of apoptotic cells” value in the data set with HCT116 cells [4] stood at 8.31%.
Consider `Nc1nccnc1C(=O)NNc1ncnc2ccccc12` [Compound 5, 3-Amino-Nʹ-(quinazolin-4-yl)pyrazine-2-carbohydrazide], for which the IC50 turned out to be 24.2 ± 5.39 µM with A549; 6.9 ± 2 µM with s180; 0.75 ± 0.01 µM with RPMI-8226; 0.072 µM against p97 ATPase; 1.79 ± 0.73 µM with K562; 4.53 ± 1.26 µM with HepG2. The IC50 in the data set on NCM460 amounted to 24.2 ± 1.05 µM; with HCT116 it was 5.83 ± 1.03 µM. The compound also displayed a Kd on His6-p97 of 0.4 ± 0.15 µM. For the same compound, the “proportion of apoptotic cells” value with HCT116 cells [4] came out at 9.34%.
For the compound `COc1cccc2c(NNC(=O)c3cnccn3)ncnc12` [Compound 6, Nʹ-(8-Methoxyquinazolin-4-yl)pyrazine-2-carbohydrazide], the IC50 in the data set with A549 was > 100 µM; in the data set with s180, 1.72 ± 0.69 µM; in the data set with RPMI-8226, 3.61 ± 0.27 µM; in the data set with K562, > 100 µM; in the data set on HepG2 it was > 100 µM; in the data set on NCM460, 36.2 ± 2.89 µM. Besides, the IC50 in the data set on HCT116 worked out at 2.94 ± 0.1 µM. Also, the ALC result in data set [1] is on record as “no significant changes”. The ANC result in data set [1] is on record as “no significant changes”. Further, the PLT count result in [1] is “no significant changes”. Further, the RBC result in data set [1] is “no significant changes”. Besides, in data set [1], the WBC result was “no significant changes”. Further, under “mouse, in vivo, po”, the “death of mice during the in vivo experiments” value is recorded as “no mice died”. The body weight change entry (oral 90 μmol/kg/day, 10 days) was “No obvious loss of body weight”. In the data set on HCT116 cells [4], the “proportion of apoptotic cells” value is reported as 20.68%.
As to `COc1cccc2c(NNC(=O)c3nccnc3N)ncnc12` [Compound 7, 3-Amino-Nʹ-(8-methoxyquinazolin-4-yl)pyrazine-2-carbohydrazide], the IC50 with A549 was > 100 µM; in the data set on s180, 32.4 ± 2.57 µM; with RPMI-8226 it was 39.8 ± 0.95 µM; in the data set with K562 it was > 100 µM; with HepG2 it was > 100 µM; with NCM460, 27.3 ± 1.62 µM. For the same compound, the IC50 in the data set with HCT116 is > 100 µM. In the data set on HCT116 cells [5], the “effect on the cell cycle” value was “arrested the cells in both G0/G1 and S phases”. In addition, the “proportion of apoptotic cells” value in the data set on HCT116 cells [4] is recorded as 8.94%.
For `O=C(O)/C=C/c1ccc(Nc2nc(NCc3cnccn3)c3ccccc3n2)cc1` [Compound 10a, (E)-3-(4-((4-((Pyrazin-2-ylmethyl)amino)quinazolin-2-yl)amino)phenyl)acrylic acid], at His6-p97, the dissociation constant Kd amounted to 5 µM. Besides, the “IC50 of inactivation activities against p97” value against p97 ATPase is “Inactive”.
For `COc1cccc2c(NCc3cnccn3)nc(Nc3ccc(/C=C/C(=O)O)cc3)nc12` [Compound 10b, (E)-3-(4-((8-Methoxy-4-((pyrazin-2-ylmethyl)amino)quinazolin-2-yl)amino)phenyl)acrylic acid], in that order: > 10 µM and “Inactive”.
For `NC(=O)/C=C/c1ccc(Nc2nc(NCc3cnccn3)c3ccccc3n2)cc1` [Compound 11a, (E)-3-(4-((4-((Pyrazin-2-ylmethyl)amino)quinazolin-2-yl)amino)phenyl)acrylamide], in that order: > 10 µM and “Inactive”.
For `COc1cccc2c(NCc3cnccn3)nc(Nc3ccc(/C=C/C(N)=O)cc3)nc12` [Compound 11b, (E)-3-(4-((8-Methoxy-4-((pyrazin-2-ylmethyl)amino)quinazolin-2-yl)amino)phenyl)acrylamide], in that order: > 10 µM and “Inactive”.
Turning to `COc1cccc2c(NCc3ccccc3)nc(NCc3ccccc3)nc12` [Compound P2-B11], the IC50 in the data set with p97 [3] (setting [7]) is 3.4 µM.
As to `c1ccc(CNc2nc(NCc3ccccc3)c3ccccc3n2)cc1` [DBeQ], the IC50 in the data set with A549 was 11.6 ± 0.84 µM; in the data set on s180, 2.69 ± 0.82 µM; with RPMI-8226 it was 4.29 ± 2.46 µM; with p97 [3] (ref Chou et al., 2011, read-out: IC50 in the ATPase activity assays) it was < 10 µM; against p97 ATPase, 0.657 µM; with K562, 5.64 ± 1.08 µM. The results for the half-inhibitory concentration (IC50) in the data set on HepG2, in the data set with NCM460 and in the data set on HCT116 were 7.57 ± 1.2 µM, 6.44 ± 0.36 µM and 4.78 ± 0.22 µM, respectively. The compound further returned a Kd on His6-p97 of 0.68 ± 0.059 µM. Also, in data set [1], the ALC result is “significantly reduced”. Besides, the ANC entry in [1] was “no significant alterations”. Further, the PLT count entry in [1] is on record as “no significant alterations”. Also, in data set [1], the RBC result is “no significant alterations”. The WBC entry in [1] was “significantly reduced”. The same compound came in with a G0/G1 phase fraction with HCT116 cells [5] (12 h, same concentration as apoptosis measurement, vehicle 32.82%) of 33.53%. Also, in the data set with HCT116 cells [5] (12 h, vehicle 23.61%), the “percentage of cells in the S phase” value was 16.74%. Further, the “percentage of cells in the G2/M phase” value in the data set with HCT116 cells [5] (12 h, vehicle 43.51%) was found to be 49.30%. In the data set with HCT116 cells [5], the “effect on the cell cycle” value is given as “arrested the cell cycle at the G2/M phase”. In the data set with p97 [6], the “p97 concentration in the serum” value is “lowered”. Besides, the “autophagosome formation in the cytoplasm” value in data set [2] was “induced accumulation”. Moreover, the “levels of the ER stress biomarker (ATF4)” value in data set [2] is “increased levels”. Further, the “proportion of apoptotic cells” value in the data set on HCT116 cells [4] was found to be 19.65%.
`COc1cccc2c(NCc3ccccc3)nc(-n3c(C)cc4c(NS(C)(=O)=O)cccc43)nc12` [ML-240]: the IC50 with p97 [3] (setting [7]) is 0.11 µM.
`c1ccc(CNc2nc(N3CCOc4ccccc43)nc3c2CCCC3)cc1` [ML-241]: in the data set on p97 [3] (setting [7]), the IC50 was 0.1 µM.
In the case of `Cc1cc2c(NS(C)(=O)=O)cccc2n1-c1nc2c(c(NCc3ccccc3)n1)COCC2` [compound 35], the IC50 with p97 [3] (setting [7]) was 0.036 µM.

The record behind these values is paper PMC10300352, “Discovery of novel benzylquinazoline molecules as p97/VCP inhibitors” (Frontiers in Pharmacology, 2023).
